Assay results as given in patent US20190038714A1, “ANTI-INFLAMMATORY COMPOSITION COMPRISING CLAVASPIRIN PEPTIDE ANALOGUE AS EFFECTIVE INGREDIENT” (INDUSTRY-ACADEMIC COOPERATION FOUNDATION, CHOSUN UNIVERSITY, priority 2015, published 2019).
Ends that are not written are not given here.

Key:
[1] = system: S. aureus MRSA 1635; conditions: 24 hours at 37° C.
[2] = system: S. aureus MRSA 2-122; conditions: 24 hours at 37° C.
[3] = system: human erythrocyte; experiment: Erythrocyte hemolytic activity; assay type: cell-based; conditions: for Erythrocyte disrupting ability %: 1 hour at 37° C., Triton X-100 = 100%
Experimental: To compare the cytotoxicity among the peptides that are produced by the method of Example 1, erythrocyte hemolytic activity of the synthesized peptide was measured.
Specifically, human erythrocyte was diluted in physiological saline (PBS, pH 7.0) to have concentration of 8%, and clavaspirin, CSP-4, and melittin peptide were serially diluted (i.e., dilution to 1/2 concentration from higher concentration for each dilution) followed by reaction for 1 hour at 37° C. After that, the amount of hemoglobin contained in a supernatant collected by centrifuge at 1,000×g was determined by measuring the absorbance at a wavelength of 414 nm. As a control group to be used as a reference for cell disruption level, the supernatant collected by a treatment with 1% Triton X-100 (Sigma, USA) and a reaction for 1 hour at 37° C. was used for absorbance measurement. By setting the erythrocyte hemolytic activity of Triton X-100 at 100%, the hemolytic activity of the above peptides was calculated using the following mathematical equation 1.
Erythrocyte disrupting ability (hemolysis) (%)=(Absorbance A−Absorbance B)/(Absorbance C−Absorbance B)×100 [Mathematical equation 1]
(in the above equation, Absorbance A indicates the absorbance of a reaction solution treated with each peptide, in which the absorbance is measured at a wavelength of 414 nm; Absorbance B indicates the absorbance of a reaction solution treated with PBS, in which the absorbance is measured at a wavelength of 414 nm; and Absorbance C indicates the absorbance of a reaction solution treated with 1% Triton X-100, in which the absorbance is measured at a wavelength of 414 nm).

[4] = system: S. aureus MRSA 3-359; conditions: 24 hours at 37° C.
[5] = system: S. aureus MRSA 4761; conditions: 24 hours at 37° C.
[6] = system: S. aureus MRSA 5159; conditions: 24 hours at 37° C.
[7] = system: S. aureus MRSA 1630; conditions: 24 hours at 37° C.
[8] = system: S. aureus; conditions: 24 hours at 37° C.
[9] = system: S. aureus MRSA 3511; conditions: 24 hours at 37° C.
[10] = system: Salmonella typhimurium, KTCC 1926; experiment: Growth minimum inhibitory concentration (MIC), microtiter broth dilution; assay type: cell-based; conditions: S. typhimurium; 12 hours at 37° C.
Excerpt: (§1) To compare the antimicrobial activity of the peptide produced by the method of Example 1, the inventors of the present invention measured the growth minimum inhibitory concentration (MIC), which is minimum concentration of the peptide showing no dissociation of bacterial cells.
(§2) Specifically, E. coli (Escherichia coli, ATCC 25922), and P. aeruginosa (Pseudomonas aeruginosa, ATCC 15692), S. typhimurium (Salmonella typhimurium, KTCC 1926), and P. vulgaris (Proteus vulgaris, KCTC 2433 as Gram-negative bacteria, and S. aureus (Staphylococcus aureus, ATCC 25923), L. monocytogenes (Listeria monocytogenes, ATCC 19115), B. subtilis (Bacillus subtilis, KCTC 1918), and S. epidermidis (Staphylococcus epidermidis, KCTC 3096) as Gram-positive bacteria were used after obtaining them from American Type Culture Collection (ATCC) or Korean Cell Line Bank. Each bacterial cell line was cultured in LB medium (1% bacto tryptone, 0.5% bacto yeast extract, and 1% sodium chloride; Sigma, USA) to a mid-log phase at pH of 5.5 or 7.4. After that, the cells were diluted in 1% bacto peptone medium (Difco, USA) to have cell body concentration of 5×10^5 cells/100 μl, and then inoculated to a microtiter plate (NUNC, USA). Thereafter, each of CSP-4 peptide synthesized in Example 1 above and the mother peptide was diluted, 1/2 times for each, at pH of 5.5 or 7.4 in a 96-well plate. After adding the cells to the plate, the cells were cultured for 12 hours at 37° C. Then, the absorbance was measured at a wavelength of 620 nm by using a microtiter plate reader (Merck Elisa reader, Germany) to determine the MIC value of each bacterial strain.

[11] = system: Bacillus subtilis, KCTC 1918; experiment: as above; assay type: cell-based; conditions: B. subtilis; 12 hours at 37° C.
Excerpt: as §1, §2

[12] = system: Staphylococcus aureus, ATCC 25923; experiment: as above; assay type: cell-based; conditions: S. aureus; 12 hours at 37° C.
Excerpt: as §1, §2

[13] = system: Listeria monocytogenes, ATCC 19115; experiment: as above; assay type: cell-based; conditions: L. monocytogenes; 12 hours at 37° C.
Excerpt: as §1, §2

[14] = system: Staphylococcus epidermidis, KCTC 3096; experiment: as above; assay type: cell-based; conditions: S. epidermidis; 12 hours at 37° C.
Excerpt: as §1, §2

[15] = system: Pseudomonas aeruginosa, ATCC 15692; experiment: as above; assay type: cell-based; conditions: P. aeruginosa; 12 hours at 37° C.
Excerpt: as §1, §2

[16] = system: Proteus vulgaris, KCTC 2433; experiment: as above; assay type: cell-based; conditions: P. vulgaris; 12 hours at 37° C.
Excerpt: as §1, §2

[17] = system: Escherichia coli, ATCC 25922; experiment: as above; assay type: cell-based; conditions: 12 hours at 37° C., pH of 5.5 or 7.4 (not given)
Excerpt: as §1, §2

[18] = system: S. aureus MRSA 3518; conditions: 24 hours at 37° C.
[19] = system: S. aureus MRSA 5157; conditions: 24 hours at 37° C.

## FLRFIGSVIHGIGHLVHHIGVAL-NH2 [Clavaspirin]
[1]
  MIC: 16 µM
[2]
  MIC: 8 µM
[3]; peptide 25 μM
  Erythrocyte disrupting ability %: 100%
[3]; peptide 50 μM
  Erythrocyte disrupting ability %: 100%
[3]; peptide 100 μM
  Erythrocyte disrupting ability %: 100%
[3]; peptide 200 μM
  Erythrocyte disrupting ability %: 100%
[3]; peptide 400 μM
  Erythrocyte disrupting ability %: 100%
[4]
  MIC: 16 µM
[5]
  MIC: 32 µM
[6]
  MIC: 32 µM
[7]
  MIC: 8 µM
[8]
  MIC: 16 µM
[9]
  MIC: 8 µM
[10]
  Growth minimum inhibitory concentration: 32 µM
[11]
  Growth minimum inhibitory concentration: 16 µM
[12]
  Growth minimum inhibitory concentration: 16 µM
[13]
  Growth minimum inhibitory concentration: 16 µM
[14]
  Growth minimum inhibitory concentration: 4 µM
[15]
  Growth minimum inhibitory concentration: 32 µM
[16]
  Growth minimum inhibitory concentration: 8 µM
[17]
  Growth minimum inhibitory concentration: 2 µM
[18]
  MIC: 8 µM
[19]
  MIC: 8 µM

## FLRFIGSVKHGKGHLVHHIGVAL-NH2 [CSP-4]
[1]
  MIC: 8 µM
[2]
  MIC: 8 µM
[3]; at 500 μg/ml
  hemolysis (FIG. 1): less than 1%
[3]; concentration of 200 μM or less
  hemolytic activity: almost no hemolytic activity
[3]; peptide 25 μM
  Erythrocyte disrupting ability %: 0%
[3]; peptide 50 μM
  Erythrocyte disrupting ability %: 0%
[3]; peptide 100 μM
  Erythrocyte disrupting ability %: 0%
[3]; peptide 200 μM
  Erythrocyte disrupting ability %: 1%
[3]; peptide 400 μM
  Erythrocyte disrupting ability %: 10%
[4]
  MIC: 8 µM
[5]
  MIC: 8 µM
[6]
  MIC: 8 µM
[7]
  MIC: 8 µM
[8]
  MIC: 8 µM
[9]
  MIC: 8 µM
[10]
  Growth minimum inhibitory concentration: 64 µM
[11]
  Growth minimum inhibitory concentration: 4 µM
[12]
  Growth minimum inhibitory concentration: 8 µM
[13]
  Growth minimum inhibitory concentration: 4 µM
[14]
  Growth minimum inhibitory concentration: 4 µM
[15]
  Growth minimum inhibitory concentration: 32 µM
[16]
  Growth minimum inhibitory concentration: 4 µM
[17]
  Growth minimum inhibitory concentration: 2 µM
[18]
  MIC: 8 µM
[19]
  MIC: 8 µM
